Source: the supplement of paper PMC6315032

Key:
Test in all cases: apparent dissociation constant (pKDapp, Kinobeads competition, Cheng-Prusoff corrected) (-log10 M); higher = tighter binding
Details in all cases: affinity matrix / lysate: Kinobeads, mixed HEK293/K-562/placenta lysate
DYRK1B = DYRK1B (UniProt Q9Y463)
PRKACA = PRKACA (UniProt P17612)
WNK1 = WNK1 (UniProt Q9H4A3)
CSNK1G3 = CSNK1G3 (UniProt Q9Y6M4)
SGK1 = SGK1 (UniProt O00141)
MAP3K10 = MAP3K10 (UniProt Q02779)
CAMK1 = CAMK1 (UniProt Q14012)
Sequence of CAMK1 (Q14012 whole entry, looked up): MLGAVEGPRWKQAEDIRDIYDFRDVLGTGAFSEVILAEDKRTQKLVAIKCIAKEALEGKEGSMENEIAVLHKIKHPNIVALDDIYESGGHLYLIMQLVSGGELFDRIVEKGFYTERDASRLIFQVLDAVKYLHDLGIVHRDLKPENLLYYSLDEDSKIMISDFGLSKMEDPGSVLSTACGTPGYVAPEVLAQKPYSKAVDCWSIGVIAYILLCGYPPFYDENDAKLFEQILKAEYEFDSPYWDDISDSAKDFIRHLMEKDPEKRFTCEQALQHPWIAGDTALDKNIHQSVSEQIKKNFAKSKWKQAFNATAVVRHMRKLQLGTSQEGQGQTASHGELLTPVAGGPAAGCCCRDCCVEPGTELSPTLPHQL

PRKACB = PRKACB (UniProt P22694)
ACVRL1 = ACVRL1 (UniProt P37023)
CDK9 = CDK9 (UniProt P50750)
Sequence of CDK9 (P50750 whole entry): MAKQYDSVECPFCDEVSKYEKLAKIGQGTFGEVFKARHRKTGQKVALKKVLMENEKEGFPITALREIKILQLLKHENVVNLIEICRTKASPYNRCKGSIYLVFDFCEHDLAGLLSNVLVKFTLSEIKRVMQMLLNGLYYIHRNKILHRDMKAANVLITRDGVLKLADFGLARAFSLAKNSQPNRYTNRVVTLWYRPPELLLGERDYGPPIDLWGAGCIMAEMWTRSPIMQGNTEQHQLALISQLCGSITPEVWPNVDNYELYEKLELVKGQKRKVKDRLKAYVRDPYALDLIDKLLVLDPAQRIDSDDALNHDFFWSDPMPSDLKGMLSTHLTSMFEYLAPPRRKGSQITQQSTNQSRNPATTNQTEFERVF

RP6-213H19 1 = target: RP6-213H19 1
ADCK4 = ADCK4 (UniProt Q96D53)
DDR2 = DDR2 (UniProt Q16832)
MAP3K11 = MAP3K11 (UniProt Q16584)
Sequence of MAP3K11 (Q16584 whole entry, looked up): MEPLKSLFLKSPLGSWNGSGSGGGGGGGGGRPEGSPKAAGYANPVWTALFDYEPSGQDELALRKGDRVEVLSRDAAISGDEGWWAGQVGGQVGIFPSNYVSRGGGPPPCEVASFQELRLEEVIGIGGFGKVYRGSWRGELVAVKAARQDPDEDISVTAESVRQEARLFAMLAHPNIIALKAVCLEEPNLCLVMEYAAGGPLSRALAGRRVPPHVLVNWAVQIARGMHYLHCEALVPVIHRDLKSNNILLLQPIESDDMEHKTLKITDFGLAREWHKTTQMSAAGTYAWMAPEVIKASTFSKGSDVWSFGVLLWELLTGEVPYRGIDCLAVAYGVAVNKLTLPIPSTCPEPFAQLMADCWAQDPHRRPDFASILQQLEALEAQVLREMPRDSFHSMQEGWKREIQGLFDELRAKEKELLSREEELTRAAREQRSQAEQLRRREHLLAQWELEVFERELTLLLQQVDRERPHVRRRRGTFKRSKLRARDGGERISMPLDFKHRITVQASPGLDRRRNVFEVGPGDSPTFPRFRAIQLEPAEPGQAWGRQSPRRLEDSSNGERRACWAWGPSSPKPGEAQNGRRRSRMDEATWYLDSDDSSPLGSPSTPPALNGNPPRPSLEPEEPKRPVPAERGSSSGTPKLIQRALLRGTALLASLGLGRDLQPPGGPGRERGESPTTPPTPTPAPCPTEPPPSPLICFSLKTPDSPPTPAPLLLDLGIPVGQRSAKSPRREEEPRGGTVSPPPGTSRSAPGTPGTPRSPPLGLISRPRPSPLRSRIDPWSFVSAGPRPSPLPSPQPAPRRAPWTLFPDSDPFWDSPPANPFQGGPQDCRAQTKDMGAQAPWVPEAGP

RNASEL = RNASEL (UniProt Q05823)
Sequence of RNASEL (Q05823 whole entry): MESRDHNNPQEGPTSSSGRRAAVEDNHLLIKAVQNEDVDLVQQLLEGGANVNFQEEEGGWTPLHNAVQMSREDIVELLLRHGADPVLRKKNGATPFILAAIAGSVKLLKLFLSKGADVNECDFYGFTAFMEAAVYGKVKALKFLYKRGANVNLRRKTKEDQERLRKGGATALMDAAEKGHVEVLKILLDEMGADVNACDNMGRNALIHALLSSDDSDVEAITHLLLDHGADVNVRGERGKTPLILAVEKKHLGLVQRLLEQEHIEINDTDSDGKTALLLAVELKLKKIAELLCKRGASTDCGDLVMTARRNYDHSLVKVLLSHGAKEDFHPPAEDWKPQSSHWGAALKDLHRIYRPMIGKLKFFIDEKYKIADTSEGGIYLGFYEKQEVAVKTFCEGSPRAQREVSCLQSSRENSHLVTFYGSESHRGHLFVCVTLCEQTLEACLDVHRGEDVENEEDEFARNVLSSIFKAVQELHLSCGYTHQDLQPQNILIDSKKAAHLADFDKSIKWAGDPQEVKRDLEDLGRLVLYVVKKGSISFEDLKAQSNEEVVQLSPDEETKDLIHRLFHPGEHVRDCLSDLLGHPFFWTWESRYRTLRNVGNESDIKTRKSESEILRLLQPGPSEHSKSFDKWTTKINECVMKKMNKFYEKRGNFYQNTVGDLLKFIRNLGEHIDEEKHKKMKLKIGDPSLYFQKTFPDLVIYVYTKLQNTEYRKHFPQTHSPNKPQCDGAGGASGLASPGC

EIF2AK3 = EIF2AK3 (UniProt Q9NZJ5)
Sequence of EIF2AK3 (Q9NZJ5 whole entry): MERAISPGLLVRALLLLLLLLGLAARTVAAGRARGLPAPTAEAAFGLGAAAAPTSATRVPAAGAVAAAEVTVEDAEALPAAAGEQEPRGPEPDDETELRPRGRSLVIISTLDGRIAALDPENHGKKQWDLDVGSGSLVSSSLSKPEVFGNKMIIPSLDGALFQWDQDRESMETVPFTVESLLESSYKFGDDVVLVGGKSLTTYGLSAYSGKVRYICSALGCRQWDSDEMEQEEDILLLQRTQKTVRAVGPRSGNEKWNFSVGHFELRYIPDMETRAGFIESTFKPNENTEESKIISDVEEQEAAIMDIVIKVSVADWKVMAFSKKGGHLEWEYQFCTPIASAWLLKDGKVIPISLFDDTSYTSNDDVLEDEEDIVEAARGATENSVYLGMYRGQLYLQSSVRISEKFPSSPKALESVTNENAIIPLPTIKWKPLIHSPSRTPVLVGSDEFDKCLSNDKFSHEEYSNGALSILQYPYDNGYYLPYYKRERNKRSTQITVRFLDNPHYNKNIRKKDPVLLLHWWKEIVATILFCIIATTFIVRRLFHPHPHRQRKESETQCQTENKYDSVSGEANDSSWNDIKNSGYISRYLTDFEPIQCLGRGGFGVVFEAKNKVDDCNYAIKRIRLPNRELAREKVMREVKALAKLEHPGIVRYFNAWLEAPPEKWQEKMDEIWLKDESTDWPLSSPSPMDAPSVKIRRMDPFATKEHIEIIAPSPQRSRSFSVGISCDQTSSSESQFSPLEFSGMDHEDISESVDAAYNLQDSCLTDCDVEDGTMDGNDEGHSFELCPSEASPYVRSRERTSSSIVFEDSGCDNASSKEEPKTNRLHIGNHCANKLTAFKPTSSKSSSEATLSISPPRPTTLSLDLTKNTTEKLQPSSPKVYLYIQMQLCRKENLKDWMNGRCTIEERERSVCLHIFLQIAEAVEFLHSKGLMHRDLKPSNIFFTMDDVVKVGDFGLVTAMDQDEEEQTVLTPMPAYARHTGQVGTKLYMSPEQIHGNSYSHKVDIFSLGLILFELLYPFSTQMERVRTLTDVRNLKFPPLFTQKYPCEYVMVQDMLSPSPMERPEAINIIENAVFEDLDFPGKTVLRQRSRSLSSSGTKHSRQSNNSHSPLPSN

DYRK2 = DYRK2 (UniProt Q92630)
MAPK10 = MAPK10 (UniProt P53779)
Sequence of MAPK10 (P53779 whole entry): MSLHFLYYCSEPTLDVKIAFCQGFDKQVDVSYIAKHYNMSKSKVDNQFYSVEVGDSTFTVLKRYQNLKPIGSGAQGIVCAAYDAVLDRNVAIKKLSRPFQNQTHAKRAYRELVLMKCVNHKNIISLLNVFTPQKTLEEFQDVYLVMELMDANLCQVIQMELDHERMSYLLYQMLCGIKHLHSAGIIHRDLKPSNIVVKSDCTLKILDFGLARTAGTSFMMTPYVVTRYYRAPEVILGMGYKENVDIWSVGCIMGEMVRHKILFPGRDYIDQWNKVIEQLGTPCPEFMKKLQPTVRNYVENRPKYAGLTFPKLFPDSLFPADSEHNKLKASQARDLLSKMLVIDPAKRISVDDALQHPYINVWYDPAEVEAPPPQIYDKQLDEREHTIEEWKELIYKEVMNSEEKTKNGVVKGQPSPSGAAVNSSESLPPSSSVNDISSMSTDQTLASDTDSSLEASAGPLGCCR

LCK = LCK (UniProt P06239)
MAP4K1 = MAP4K1 (UniProt Q92918)
SIK1 = SIK1 (UniProt P57059)
Sequence of SIK1 (P57059 whole entry): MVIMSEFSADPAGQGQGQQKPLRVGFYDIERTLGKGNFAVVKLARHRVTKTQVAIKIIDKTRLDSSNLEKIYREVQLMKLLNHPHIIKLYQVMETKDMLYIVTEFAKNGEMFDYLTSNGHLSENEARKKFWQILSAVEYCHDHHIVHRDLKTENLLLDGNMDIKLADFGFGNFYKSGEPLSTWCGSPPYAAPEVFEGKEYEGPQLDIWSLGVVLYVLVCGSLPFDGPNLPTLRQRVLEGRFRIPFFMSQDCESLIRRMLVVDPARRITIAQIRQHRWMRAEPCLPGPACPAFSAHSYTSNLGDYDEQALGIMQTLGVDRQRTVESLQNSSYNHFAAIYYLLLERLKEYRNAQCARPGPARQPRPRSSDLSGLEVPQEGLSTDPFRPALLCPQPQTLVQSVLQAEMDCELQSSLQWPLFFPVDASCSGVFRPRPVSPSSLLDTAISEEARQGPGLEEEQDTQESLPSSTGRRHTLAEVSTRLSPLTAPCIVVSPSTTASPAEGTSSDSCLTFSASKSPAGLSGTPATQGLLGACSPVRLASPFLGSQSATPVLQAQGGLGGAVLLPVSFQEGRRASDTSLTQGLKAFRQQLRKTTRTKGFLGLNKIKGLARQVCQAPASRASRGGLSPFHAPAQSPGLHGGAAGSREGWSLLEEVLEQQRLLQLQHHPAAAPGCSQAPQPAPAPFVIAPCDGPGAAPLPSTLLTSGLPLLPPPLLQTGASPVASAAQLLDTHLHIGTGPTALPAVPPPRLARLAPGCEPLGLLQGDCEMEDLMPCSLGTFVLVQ

EIF2AK2 = EIF2AK2 (UniProt P19525)
AURKC = AURKC (UniProt Q9UQB9)
Sequence of AURKC (Q9UQB9 whole entry): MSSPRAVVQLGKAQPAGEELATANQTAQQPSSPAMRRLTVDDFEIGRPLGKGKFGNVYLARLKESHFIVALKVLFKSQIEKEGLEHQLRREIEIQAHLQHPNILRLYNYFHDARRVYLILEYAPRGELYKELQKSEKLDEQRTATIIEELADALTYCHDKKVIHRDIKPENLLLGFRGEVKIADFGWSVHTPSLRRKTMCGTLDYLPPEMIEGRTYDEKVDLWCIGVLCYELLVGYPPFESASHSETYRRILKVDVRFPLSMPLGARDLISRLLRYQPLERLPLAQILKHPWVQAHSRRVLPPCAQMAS

| apparent dissociation constant (-log10 M) (DYRK1B) | apparent dissociation constant (-log10 M) (PRKACA) | apparent dissociation constant (-log10 M) (WNK1) | apparent dissociation constant (-log10 M) (CSNK1G3) | apparent dissociation constant (-log10 M) (SGK1) | apparent dissociation constant (-log10 M) (MAP3K10) | apparent dissociation constant (-log10 M) (CAMK1) | apparent dissociation constant (-log10 M) (PRKACB) | apparent dissociation constant (-log10 M) (ACVRL1) | apparent dissociation constant (-log10 M) (CDK9) | apparent dissociation constant (-log10 M) (RP6-213H19 1) | apparent dissociation constant (-log10 M) (ADCK4) | apparent dissociation constant (-log10 M) (DDR2) | apparent dissociation constant (-log10 M) (MAP3K11) | apparent dissociation constant (-log10 M) (RNASEL) | apparent dissociation constant (-log10 M) (EIF2AK3) | apparent dissociation constant (-log10 M) (DYRK2) | apparent dissociation constant (-log10 M) (MAPK10) | apparent dissociation constant (-log10 M) (LCK) | apparent dissociation constant (-log10 M) (MAP4K1) | apparent dissociation constant (-log10 M) (SIK1) | apparent dissociation constant (-log10 M) (EIF2AK2) | apparent dissociation constant (-log10 M) (AURKC) | Compound |
| --- | --- | --- | --- | --- | --- | --- | --- | --- | --- | --- | --- | --- | --- | --- | --- | --- | --- | --- | --- | --- | --- | --- | --- |
| < 6 | < 6 | < 6 | < 6 | < 6 | < 6 | < 6 | < 6 | < 6 | < 6 | < 6 | < 6 | < 6 | < 6 | < 6 | < 6 | < 6 | < 6 | < 6 | < 6 | < 6 | < 6 | – | CCNC(=O)Nc1ccc(-c2nc(N3CCOC[C@@H]3C)c3c(n2)C(C)(C)S(=O)(=O)C3)cc1 [CZ415] |
| – | – | – | – | – | – | – | – | – | – | – | – | – | – | – | – | – | – | – | – | – | – | < 6 | COc1ccc(-c2ccc3c(N4CCOC[C@@H]4C)nc(N4CCOC[C@@H]4C)nc3n2)cc1CO [AZD8055] |
